6 compounds from ChEMBL document CHEMBL1201862, “PubChem BioAssay data set” (2004) can be followed below.

The source made the active and inactive calls.

One experiment concerns the target Keap1/Nrf2 (Homo sapiens, UniProt Q14145). The experiment can be described thus: disruptors of Keap1 binding to Nrf2 peptide – biochemical, fluorescence polarization, cherry-picked samples, dose response (AID 588683). For orientation: Fluorescence polarisation rises when a labelled molecule tumbles more slowly, as on binding a larger partner.
A further experiment has as its system HeLa. The experiment can be described thus: viability loss in HeLa cells – cell-based, 24 h, cherry-picked samples, cytotoxicity control, dose response (AID 504726).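 Further: potency for cytotoxicity as loss of luminescence signal.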 Type of experiment: functional. Particulars: Homo sapiens.
A further experiment deals with ORF 73 (Human herpesvirus 8, UniProt O40947). The experiment can be described thus: KSHV LANA DNA-binding disruption – biochemical, fluorescence polarization, cherry-picked samples, dose response (AID 504725).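 Further: fluorescence polarization of a labeled DNA duplex reporting LANA DNA binding; potency is for inhibitors that block LANA binding to the DNA.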 Details: species or system Human gammaherpesvirus 8.
Experiment [1] deals with Heat shock protein HSP 90-alpha (Homo sapiens, UniProt P07900). Type of experiment: functional, organism-based.
Experiment [2] is described as follows: Luminescence Cell-Based Dose Retest to Confirm Inhibitors of Cancer Stem Cells. [Related pubchem assays (depositor defined):AID2717, AID2721]. Type of experiment: functional. Particulars: Homo sapiens.
Experiment [3] addresses T1, Short transient receptor potential channel 4 (Mus musculus, UniProt Q9QUQ5).
T1 sequence (Q9QUQ5 whole entry): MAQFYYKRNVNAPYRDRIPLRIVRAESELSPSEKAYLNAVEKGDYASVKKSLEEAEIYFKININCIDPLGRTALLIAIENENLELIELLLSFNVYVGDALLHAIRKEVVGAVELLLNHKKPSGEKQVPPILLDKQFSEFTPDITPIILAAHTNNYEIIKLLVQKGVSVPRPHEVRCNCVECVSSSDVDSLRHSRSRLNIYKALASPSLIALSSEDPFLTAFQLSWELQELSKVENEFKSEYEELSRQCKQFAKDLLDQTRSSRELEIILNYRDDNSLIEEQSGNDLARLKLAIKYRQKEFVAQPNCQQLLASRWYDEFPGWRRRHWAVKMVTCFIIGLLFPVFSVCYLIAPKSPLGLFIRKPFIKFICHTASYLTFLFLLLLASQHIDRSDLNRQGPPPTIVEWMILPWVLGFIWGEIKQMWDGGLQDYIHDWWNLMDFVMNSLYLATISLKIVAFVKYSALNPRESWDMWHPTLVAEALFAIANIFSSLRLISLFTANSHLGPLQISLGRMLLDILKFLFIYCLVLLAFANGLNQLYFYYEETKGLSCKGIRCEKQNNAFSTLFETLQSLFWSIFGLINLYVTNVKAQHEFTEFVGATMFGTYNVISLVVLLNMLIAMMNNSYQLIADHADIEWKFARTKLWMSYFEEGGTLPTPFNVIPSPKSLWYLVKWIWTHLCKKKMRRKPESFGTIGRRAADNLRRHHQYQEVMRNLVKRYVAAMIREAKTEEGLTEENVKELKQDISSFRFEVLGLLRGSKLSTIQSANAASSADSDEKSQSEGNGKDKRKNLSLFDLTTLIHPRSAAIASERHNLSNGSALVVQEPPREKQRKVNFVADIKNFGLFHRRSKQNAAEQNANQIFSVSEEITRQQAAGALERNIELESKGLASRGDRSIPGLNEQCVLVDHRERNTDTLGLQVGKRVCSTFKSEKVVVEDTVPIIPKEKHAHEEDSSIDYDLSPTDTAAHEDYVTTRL
The experiment can be described thus: potentiation of DAMGO-evoked TRPC4 calcium signal – cell-based, HEK293 TRPC4/mu-opioid, Fluo-4 calcium, EC20 DAMGO, dose response (AID 434941).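 Further: HEK293 cells coexpressing TRPC4 and mu opioid receptor stimulated by EC20 DAMGO.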 Type of experiment: functional.

Experiment [4] can be described thus: cAMP pathway inhibition in counterscreen cell line – TR-FRET cAMP detection, counter-screen for MC4R biased antagonist project, dose response (AID 602305).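 Further: U2OS cells stimulated with forskolin near its EC80 as the cAMP inducer; potency is for inhibition of forskolin-stimulated cAMP signaling.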 Type of experiment: functional, cell-based.
A further experiment addresses Melanocortin receptor 4 (Homo sapiens, UniProt P32245). In words: inhibitors of MC4R cAMP signaling – cell-based, TR-FRET, biased antagonists, dose response (AID 602298).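 Further: antagonist potency against agonist-stimulated cAMP production.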 Type of experiment: functional. A general note: In TR-FRET formats the signal depends on donor and acceptor labels being close together.
A short description of experiment [5]: Vero E6 cell cytotoxicity, dose response, cytotoxicity control for non-replicating M. tuberculosis project, secondary assay (AID 492998). Particulars: Vero C1008. Type of experiment: functional, VeroE6.
A short description of experiment [6]: NIH3T3 cell viability loss – ATP luminescence, mouse fibroblasts, counter-screen, dose response (AID 2010).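 Further: cells exposed to compound for about 90 hours before reading.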 Type of experiment: functional, cell-based.
The nature of experiment [7]: HepG2 cell cytotoxicity, dose response, cytotoxicity control for non-replicating M. tuberculosis project (AID 489018). Type of experiment: functional. Particulars: Mycobacterium tuberculosis.
A short description of experiment [8]: THP-1 cell cytotoxicity, dose response, cytotoxicity control for non-replicating M. tuberculosis project (AID 489025). Type of experiment: functional.
Experiment [9] is described as follows: Trypanosoma cruzi growth suppression in host cells – NIH3T3 host cells, beta-gal luminescence, confirmation (AID 2044).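 Further: intracellular parasites grown in NIH/3T3 mouse fibroblasts as host cells; luminescent beta-galactosidase reporter signal from transgenic T. cruzi replicating inside host cells; inhibitors lower the luminescence signal.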 Type of experiment: functional, cell-based.
Experiment [10] is described as follows: cells. Type of experiment: functional.
Experiment [11] deals with BJ. The experiment can be described thus: growth inhibition of engineered Ras-driven BJ cells – cell-based, alamar blue fluorescence, cherrypicked samples, dose response (AID 2631).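 Further: confirmatory dose-response assay in RAS-dependent BJ fibroblasts engineered with TERT, LT and ST, with cytotoxicity read by fluorescence.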 Type of experiment: functional. Particulars: Homo sapiens. On the technique in general: Alamar Blue is a resazurin reagent that responds to reducing activity.
The target of experiment [12] is Cyclin-dependent kinase 5/CDK5 activator 1 (Homo sapiens, UniProt Q00535). The experiment can be described thus: blockade of human CDK5 activity – biochemical, cherry-picked samples, set 2, dose response (AID 504545).
Experiment [13] relates to BJ. The experiment can be described thus: BJ-TERT fibroblast viability loss – cell-based, RAS-independent, luminescence, dose response (AID 1933). Particulars: Homo sapiens. Type of experiment: functional.
The nature of experiment [14]: Luminescence Cell-Based Dose Confirmation HTS to Identify Inhibitors of Platelet Dense Granule Release. [Related pubchem assays: 1663 (Primary HTS), 1678 (Summary of Project)]. Type of experiment: functional.
For experiment [15], the system named is BJ. In words: BJ-TERT-LT-ST fibroblast viability loss – cell-based, RAS-independent, luminescence, dose response (AID 1935).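 Further: BJ fibroblasts immortalized with TERT plus LT and ST oncogenes.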 Type of experiment: functional. Particulars: Homo sapiens.
Experiment [16] has as its target Luciferin 4-monooxygenase (Photinus pyralis, UniProt P08659). In words: inhibition of purified Photinus pyralis luciferase – biochemical, luminescence, dose response (AID 1891).
Experiment [17] in a line: ADP-Glo luciferase signal interference – biochemical, luminescence, cherry-picked samples, set 2, artefact control for CDK5 inhibitor project, dose response (AID 504546). Type of experiment: functional, cell-based.
The test system of a further experiment is HEK293. The experiment can be described thus: EBV LMP1 TES2 canonical NF-kB signalling blockers – cell-based, HEK293, luciferase, cherry-pick, dose response (AID 588343). Type of experiment: functional. Particulars: Homo sapiens.
The nature of experiment [18]: DRD fibroblast viability loss – cell-based, non-viral oncogenic, luminescence, dose response (AID 1934). Type of experiment: functional. Particulars: Homo sapiens.
For experiment [19], the system named is BJ. The experiment can be described thus: cells. Type of experiment: functional, cell-based. Particulars: Homo sapiens.
Experiment [20] has as its target DNA dC->dU-editing enzyme APOBEC-3G (Homo sapiens, UniProt Q9HC16). Type of experiment: functional.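 Further: Dose-response counterscreen measuring inhibition of APOBEC3G DNA deaminase activity, run while confirming APOBEC3A inhibitors.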
The target of experiment [21] is Eukaryotic translation initiation factor 4H (Homo sapiens, UniProt Q15056). In words: eIF4H binding inhibition – biochemical, uHTS, fluorescence polarization, translation initiation inhibitor project, primary screen (AID 2012).
Experiment [22] addresses DNA dC->dU-editing enzyme APOBEC-3A (Homo sapiens, UniProt P31941). In words: Dose Response confirmation of small molecule APOBEC3A DNA Deaminase Inhibitors via a fluorescence-based single-stranded DNA deaminase assay. [Related pubchem assays (depositor defined):AID493011, AID493024]. Type of experiment: functional.
Experiment [23] addresses Polyadenylate-binding protein 1 (Homo sapiens, UniProt P11940). The experiment can be described thus: blockers of PABP interaction with poly(A) – biochemical, fluorescence polarization, […] (AID 2014).
Experiment [24] in a line: cells. Type of experiment: functional, cell-based. Particulars: PPC-1.
In a further experiment the test system is MDA-MB-435. In words: cells. Type of experiment: functional, cell-based. Particulars: Homo sapiens.

Luciferin 4-monooxygenase, sequence (P08659 whole entry): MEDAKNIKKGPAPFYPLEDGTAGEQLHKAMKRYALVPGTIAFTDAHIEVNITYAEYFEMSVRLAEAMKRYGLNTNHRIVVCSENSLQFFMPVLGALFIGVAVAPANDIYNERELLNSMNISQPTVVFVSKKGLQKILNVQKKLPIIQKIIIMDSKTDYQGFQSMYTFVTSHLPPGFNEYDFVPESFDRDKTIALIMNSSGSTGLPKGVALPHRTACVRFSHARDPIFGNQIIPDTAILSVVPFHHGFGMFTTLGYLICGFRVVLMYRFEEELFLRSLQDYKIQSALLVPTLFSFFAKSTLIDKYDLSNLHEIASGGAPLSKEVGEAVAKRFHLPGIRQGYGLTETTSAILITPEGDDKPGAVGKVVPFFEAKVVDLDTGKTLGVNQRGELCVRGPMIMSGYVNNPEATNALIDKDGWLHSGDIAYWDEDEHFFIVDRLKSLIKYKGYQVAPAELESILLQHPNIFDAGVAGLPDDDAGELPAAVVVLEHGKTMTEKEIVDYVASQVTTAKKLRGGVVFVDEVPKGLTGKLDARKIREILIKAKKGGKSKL
Keap1/Nrf2, sequence (Q16236 whole entry): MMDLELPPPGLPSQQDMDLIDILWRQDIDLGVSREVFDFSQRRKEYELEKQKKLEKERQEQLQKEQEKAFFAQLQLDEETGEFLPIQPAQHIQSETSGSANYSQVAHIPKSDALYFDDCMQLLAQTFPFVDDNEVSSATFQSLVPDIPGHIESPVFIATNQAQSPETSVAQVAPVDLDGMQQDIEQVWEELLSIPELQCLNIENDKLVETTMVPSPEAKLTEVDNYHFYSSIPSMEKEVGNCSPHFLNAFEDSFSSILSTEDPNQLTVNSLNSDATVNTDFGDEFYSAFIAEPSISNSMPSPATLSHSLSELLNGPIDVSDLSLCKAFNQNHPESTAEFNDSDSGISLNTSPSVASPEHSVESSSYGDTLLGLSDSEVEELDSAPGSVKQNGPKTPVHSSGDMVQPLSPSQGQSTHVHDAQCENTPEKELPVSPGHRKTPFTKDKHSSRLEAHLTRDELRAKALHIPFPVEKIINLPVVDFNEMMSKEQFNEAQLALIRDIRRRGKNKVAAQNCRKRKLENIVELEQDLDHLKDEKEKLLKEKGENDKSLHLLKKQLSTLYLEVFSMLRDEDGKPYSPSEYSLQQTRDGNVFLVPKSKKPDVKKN
Keap1/Nrf2, sequence (Q14145 whole entry): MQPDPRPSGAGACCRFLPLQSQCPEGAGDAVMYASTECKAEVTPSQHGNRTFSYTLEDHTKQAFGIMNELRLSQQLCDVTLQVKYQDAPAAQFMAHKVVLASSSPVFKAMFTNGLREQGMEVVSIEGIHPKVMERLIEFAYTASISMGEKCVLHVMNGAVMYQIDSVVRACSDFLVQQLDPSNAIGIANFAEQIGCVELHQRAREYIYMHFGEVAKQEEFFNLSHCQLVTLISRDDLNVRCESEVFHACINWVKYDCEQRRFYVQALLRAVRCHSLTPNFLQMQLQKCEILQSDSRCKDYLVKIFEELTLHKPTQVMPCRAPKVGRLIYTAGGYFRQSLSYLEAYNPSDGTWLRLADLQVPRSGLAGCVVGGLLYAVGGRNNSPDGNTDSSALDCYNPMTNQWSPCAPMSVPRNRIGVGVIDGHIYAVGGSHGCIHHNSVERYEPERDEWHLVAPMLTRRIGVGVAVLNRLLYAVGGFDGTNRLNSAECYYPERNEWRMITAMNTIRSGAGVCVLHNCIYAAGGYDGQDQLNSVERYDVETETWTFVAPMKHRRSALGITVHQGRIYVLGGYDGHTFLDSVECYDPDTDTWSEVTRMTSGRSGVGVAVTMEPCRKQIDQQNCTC
DNA dC->dU-editing enzyme APOBEC-3G, sequence (Q9HC16 whole entry): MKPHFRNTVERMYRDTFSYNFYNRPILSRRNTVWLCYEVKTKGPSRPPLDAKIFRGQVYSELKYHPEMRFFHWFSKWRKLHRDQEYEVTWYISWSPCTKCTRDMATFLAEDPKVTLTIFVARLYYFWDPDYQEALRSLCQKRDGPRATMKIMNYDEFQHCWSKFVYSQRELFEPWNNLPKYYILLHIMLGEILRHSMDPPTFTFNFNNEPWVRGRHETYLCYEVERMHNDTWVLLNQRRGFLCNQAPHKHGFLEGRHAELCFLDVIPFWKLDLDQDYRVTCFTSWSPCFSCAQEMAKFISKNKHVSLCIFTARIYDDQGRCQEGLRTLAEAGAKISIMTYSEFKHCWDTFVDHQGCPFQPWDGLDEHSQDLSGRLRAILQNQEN
Polyadenylate-binding protein 1, sequence (P11940 whole entry): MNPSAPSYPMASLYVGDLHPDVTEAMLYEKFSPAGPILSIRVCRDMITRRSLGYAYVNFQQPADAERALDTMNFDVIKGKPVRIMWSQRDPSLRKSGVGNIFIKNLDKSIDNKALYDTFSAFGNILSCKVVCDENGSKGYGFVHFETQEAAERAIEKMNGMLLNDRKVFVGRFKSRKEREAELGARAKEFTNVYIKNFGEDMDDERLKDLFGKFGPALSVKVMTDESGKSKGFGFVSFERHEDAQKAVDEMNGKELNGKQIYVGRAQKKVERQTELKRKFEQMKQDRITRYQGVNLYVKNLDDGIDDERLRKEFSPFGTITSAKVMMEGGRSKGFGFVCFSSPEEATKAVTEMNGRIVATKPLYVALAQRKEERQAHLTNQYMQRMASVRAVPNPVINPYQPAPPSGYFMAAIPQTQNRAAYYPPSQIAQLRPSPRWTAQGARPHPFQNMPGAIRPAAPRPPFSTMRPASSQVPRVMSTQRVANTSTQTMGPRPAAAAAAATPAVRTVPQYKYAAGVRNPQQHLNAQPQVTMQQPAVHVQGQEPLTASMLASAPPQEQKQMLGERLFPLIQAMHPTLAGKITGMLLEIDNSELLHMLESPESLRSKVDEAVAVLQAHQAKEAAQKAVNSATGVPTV
Cyclin-dependent kinase 5/CDK5 activator 1, sequence (Q00535 whole entry): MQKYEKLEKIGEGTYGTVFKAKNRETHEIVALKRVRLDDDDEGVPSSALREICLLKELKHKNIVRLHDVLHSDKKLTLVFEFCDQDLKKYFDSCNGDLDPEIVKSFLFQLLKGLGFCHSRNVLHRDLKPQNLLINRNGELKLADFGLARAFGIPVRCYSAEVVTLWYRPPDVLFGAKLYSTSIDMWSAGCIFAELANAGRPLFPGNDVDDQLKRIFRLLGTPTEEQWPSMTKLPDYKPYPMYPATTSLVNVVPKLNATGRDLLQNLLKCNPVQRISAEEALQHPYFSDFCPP
Cyclin-dependent kinase 5/CDK5 activator 1, sequence (Q15078 whole entry, further chain): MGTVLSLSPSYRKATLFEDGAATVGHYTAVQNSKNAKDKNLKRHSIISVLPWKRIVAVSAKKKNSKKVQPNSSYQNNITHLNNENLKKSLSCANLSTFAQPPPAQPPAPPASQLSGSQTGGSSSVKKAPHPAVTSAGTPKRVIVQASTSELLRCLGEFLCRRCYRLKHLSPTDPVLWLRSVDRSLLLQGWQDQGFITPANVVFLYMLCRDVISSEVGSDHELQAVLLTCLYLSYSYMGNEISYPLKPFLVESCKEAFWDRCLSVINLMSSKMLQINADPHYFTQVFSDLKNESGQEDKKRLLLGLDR
ORF 73, sequence (O40947 whole entry): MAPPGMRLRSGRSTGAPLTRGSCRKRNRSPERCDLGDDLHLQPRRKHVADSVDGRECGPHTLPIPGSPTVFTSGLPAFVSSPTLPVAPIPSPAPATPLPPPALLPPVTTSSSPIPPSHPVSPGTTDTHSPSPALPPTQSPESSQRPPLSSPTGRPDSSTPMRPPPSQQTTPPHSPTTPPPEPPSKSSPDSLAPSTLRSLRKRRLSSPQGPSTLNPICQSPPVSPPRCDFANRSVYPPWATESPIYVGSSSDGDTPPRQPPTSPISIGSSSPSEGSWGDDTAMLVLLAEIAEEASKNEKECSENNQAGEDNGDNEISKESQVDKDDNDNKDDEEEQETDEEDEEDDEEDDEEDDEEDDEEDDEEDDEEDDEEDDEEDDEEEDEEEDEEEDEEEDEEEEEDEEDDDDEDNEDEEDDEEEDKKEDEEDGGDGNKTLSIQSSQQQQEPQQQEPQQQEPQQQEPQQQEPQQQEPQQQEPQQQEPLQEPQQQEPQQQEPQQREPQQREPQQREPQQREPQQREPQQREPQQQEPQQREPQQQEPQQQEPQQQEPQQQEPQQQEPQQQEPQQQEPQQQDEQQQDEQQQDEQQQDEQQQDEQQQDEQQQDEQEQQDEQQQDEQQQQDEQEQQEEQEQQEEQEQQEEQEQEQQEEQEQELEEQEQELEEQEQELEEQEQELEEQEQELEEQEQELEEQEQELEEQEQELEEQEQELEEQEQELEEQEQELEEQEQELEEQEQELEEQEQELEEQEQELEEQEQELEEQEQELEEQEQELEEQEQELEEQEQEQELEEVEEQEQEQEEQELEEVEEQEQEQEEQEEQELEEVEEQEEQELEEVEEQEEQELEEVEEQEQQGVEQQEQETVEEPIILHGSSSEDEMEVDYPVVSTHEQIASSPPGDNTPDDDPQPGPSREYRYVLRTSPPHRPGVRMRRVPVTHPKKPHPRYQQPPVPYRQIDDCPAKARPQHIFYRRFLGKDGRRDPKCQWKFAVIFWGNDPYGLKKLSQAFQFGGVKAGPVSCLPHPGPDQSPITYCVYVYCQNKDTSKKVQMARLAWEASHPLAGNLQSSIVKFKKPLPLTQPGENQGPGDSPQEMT
DNA dC->dU-editing enzyme APOBEC-3A, sequence (P31941 whole entry): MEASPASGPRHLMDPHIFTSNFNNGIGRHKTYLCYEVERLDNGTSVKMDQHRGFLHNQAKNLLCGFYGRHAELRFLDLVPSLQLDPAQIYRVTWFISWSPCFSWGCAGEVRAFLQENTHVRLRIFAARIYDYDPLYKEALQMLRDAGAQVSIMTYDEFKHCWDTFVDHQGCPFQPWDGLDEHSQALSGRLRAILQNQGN

The AC50 is the concentration at which the activity in the assay is half-maximal. With `Cc1cccc(N2C(=O)c3cccc4c(N(C)CCO)ccc(c34)C2=O)c1`, the AC50 at Keap1/Nrf2 is 22.6 µM (active); in the experiment with HeLa it was 324 µM (active); on ORF 73 it was 204 µM (active).
One may read the EC50 as the concentration giving half of the maximal effect. As usually defined, the IC50 is the concentration that inhibits the measured activity by half. `CC1CCN(c2nc(Cl)nc(Nc3ccc([N+](=O)[O-])cc3)n2)CC1`: the AC50 in experiment [1] was 17.6 µM (active); in [2], 2.99 µM (active). In addition, the EC50 in experiment [3] is 3.35 µM (active). The IC50 (in experiment [4]; at Melanocortin receptor 4) was > 64.5 µM (inactive) each time.
A word on the CC50: it is the concentration that lowers cell viability or growth by half. For the compound `CC(=O)Nc1nc2ccccc2n1Cc1ccc(C)cc1`, the 50% cytotoxic concentration (CC50) in [5] is > 20 µM (active); in [7], > 20 µM (active); in [8] it was > 40 µM (active). For the same compound, the 50% effective concentration (EC50) is 7.78 µM (active) in [6] and 3.92 µM (active) in experiment [9]. For the same compound, the IC50 in the experiment “cells [10]” is 2.73 µM (active).
Take `CCN(CC)C(=O)c1ccc(NC(=O)Nc2ccccc2F)cc1`: the EC50 in the experiment with BJ [11] is > 133 µM (inactive); with BJ [13] it was 4.45 µM (active); in experiment [14], < 0.701 µM (active); with BJ [15], 9.1 µM (inconclusive); in [16], 0.225 µM (active); in experiment [18], 3.5 µM (active). The EC50 in the experiment with BJ [19] was 4.99 µM (active). The AC50 is 21.1 µM (active) in experiment [12], 51.6 µM (active) in experiment [17] and 2.08 µM (active) in the experiment on HEK293.
With `COc1cccc(NC(=O)c2ccc[n+](C)c2)c1`, the IC50 is 2.22 µM (active) in [20], > 100 µM (inactive) in experiment [21], 2.33 µM (active) in experiment [22] and 4.86 µM (active) in [23].
`CCSc1nc(O)cc(-c2ccccc2)n1`: the IC50 in the experiment “cells [24]” and in the experiment with MDA-MB-435 was > 10 µM (inactive) in each case.
